Counter-ions that a name gives are not always drawn.
Tests used:
[1] = Acute toxicity, oral administration to a rat (LD50); conditions: in vivo
Experimental: The LD50 value of this compound is in oral administration to a rat is 6000 mg/kg or more.

[2] = Stability under high or low humidity condition; assay type: physicochemical; conditions: below about 50° C.

SMILES: O=C(O)C=Cc1ccc(Cn2ccnc2)cc1 [4-(1-imidazolylmethyl)cinnamic acid hydrochloride monohydrate]
- LD50 [1]: ≥ 6000 mg/kg
- stability [2]: stable
